Laboratory results taken from US5138101A, “Recovery of high-boiling aldehydes from rhodium-catalyzed hydroformylation processes” (Eastman Kodak Company, priority 1991, dated 1992).
Read-outs that look alike come from different tables or passages of the source.

Experiments:
[1] = cited from earlier work
[2] = Partitioning (partition coefficient, Kp) of hydroformylation products and hydroformylation solvent between hydroformylation solvent phase and alkanol/water extraction solution phase; type: physicochemical
Excerpt: The extraction process described herein is the equilibration of a particular compound dissolving into two separate liquid phases. The effectiveness of the present extraction process may be measured in terms of the partition coefficient (Kp) for a compound "X" which is defined as: [formula] […] High Kp values give high extraction efficiencies requiring lower amounts of extraction solution. Similarly, it is desirable that the Kp of the hydroformylation solvent be a low value. This simplifies purification of the aldehyde products down-stream. In the hydroformylation of diolefins to dialdehydes, it also is desirable to have Kp values for the dialdehyde products larger than the Kp values of the intermediate mono-aldehyde mono-olefin (formyl-olefin) intermediate formed in the hydroformylation reaction. This permits recycling of the formyl-olefin to the hydroformylation reactor in the hydroformylation solvent for further reaction to the desired dialdehyde product, while selectively extracting the desired di-aldehyde product. Likewise, for the same reason, it is desirable to have low Kp values for the olefin or polyolefin feedstocks used in the process.
The extraction examples were carried out in a 300 mL, 3-neck, glass flask equipped with a Teflon magnetic stir bar, a thermometer to measure the temperature of the liquid, a septum for the use of a syringe, a heating mantle and a nitrogen bubbler blanket for the system. […] […] The mixture was stirred at 25° C. for 30 minutes to reach equilibrium, stirring was stopped, and the mixture was allowed to separate into 2 layers (phases) over a 30 minute period of time. […] Samples of each phase were taken with a syringe and chromatographed on a Hewlett Packard Model 5730 capillary FID gas chromatograph. The instrument used a 30 meter DB-1 column (Supelco.) with a programming rate of a 4 minute hold at 70° C. with a programming rate of 8° C./minute to 250° C. The calculations for the weights of hydroformylation products in each phase were carried out using standard procedures using the dodecane as an internal standard for the catalyst layer and methanol as the internal standard for the aqueous layer. The initial volumes of the two phases were used for estimation of the volumes of the two phases at equilibrium to obtain the concentrations of the products in each phase.
The partition coefficients (Kp) were calculated for the C9-enal and C10-dial products for equilibrium between the dodecane hydroformylation solvent and the extraction solution phases at 25° C.
The two phases in the flask were heated to and maintained at 53° C. with stirring for 30 minutes to reach equilibrium. The mixture was allowed to separate into 2 layers at 53° C. and each layer was sampled and analyzed as described above. […] The partitioning procedure was repeated at 70° C.

In the case of `[Rh]` [Rh, rhodium], the “Rhodium extracted into the aqueous phase” value ([1]; 4-hydroxybutyraldehyde 38 percent by weight, U.S. Pat. No. 4,678,857) is listed as 5 mg of rhodium per liter and the “Rhodium extracted into the aqueous phase” value ([1]; aqueous 2-N,N-dimethylaminoethanol, U.S. Pat. No. 4,292,196) is listed as 70%.
In the case of `CC(C)c1ccc(C(C)C)cc1` [p-diisopropylbenzene], the “Partition Coefficient” value ([2]; Example 3, Ref. Ex. 19, MeOH:water 3:1, 29° C.) was 0.075, the “Partition Coefficient” value ([2]; Example 4, Ref. Ex. 19, MeOH:water 3:1, 58° C.) was 0.118 and the “Partition Coefficient” value ([2]; Example 5, Ref. Ex. 19, MeOH:water 1.5:1, 58° C.) was 0.050. The “Partition Coefficient” value ([2]; Example 6, Ref. Ex. 19, MeOH:water 1.5:1, 31° C.) was 0.018, the “Partition Coefficient” value ([2]; Example 18, Ref. Ex. 24, EtOH:water 7:4, 52° C.) was 0.033 and the “Partition Coefficient” value ([2]; Example 19, Ref. Ex. 24, EtOH:water 7:4, 32° C.) was 0.009. For the same compound, the “Partition Coefficient” value ([2]; Example 24, Ref. Ex. 19, MeOH:water 3:1, 29° C.) was 0.075, the “Partition Coefficient” value ([2]; Example 25, Ref. Ex. 19, MeOH:water 3:1, 58° C.) was 0.118 and the “Partition Coefficient” value ([2]; Example 26, Ref. Ex. 19, MeOH:water 1.5:1, 58° C.) was 0.050. The “Partition Coefficient” value ([2]; Example 27, Ref. Ex. 19, MeOH:water 1.5:1, 31° C.) was 0.018, the “Partition Coefficient” value ([2]; Example 28, Ref. Ex. 24, EtOH:water 3:1, 48° C.) was 0.298 and the “Partition Coefficient” value ([2]; Example 29, Ref. Ex. 24, EtOH:water 3:1, 33° C.) was 0.229. The “Partition Coefficient” value ([2]; Example 30, Ref. Ex. 24, EtOH:water 7:4, 52° C.) was 0.033, the “Partition Coefficient” value ([2]; Example 31, methanol/water 37/12 mL, 50° C., Na 0) was 0.096 and the “Partition Coefficient” value ([2]; Example 32, 50° C., Na 82 mg/L as 2-ethylhexanoate) was 0.125. The “Partition Coefficient” value ([2]; Example 33, 50° C., Na 164 mg/L as 2-ethylhexanoate) was 0.115, the “Partition Coefficient” value ([2]; Example 34, 50° C., Na 327 mg/L as 2-ethylhexanoate) was 0.131 and the “Partition Coefficient” value ([2]; Example 35, 50° C., Na 653 mg/L as 2-ethylhexanoate) was 0.137. The “Partition Coefficient” value ([2]; Example 36, 50° C., Na 1307 mg/L as 2-ethylhexanoate) was 0.063, the “Partition Coefficient” value ([2]; Example 37, methanol/water 37/12 mL, 50° C., Na 0) was 0.064 and the “Partition Coefficient” value ([2]; Example 38, 50° C., Na 82 mg/L as oleate) was 0.083. For the same compound, the “Partition Coefficient” value ([2]; Example 39, 50° C., Na 164 mg/L as oleate) was 0.062, the “Partition Coefficient” value ([2]; Example 40, 50° C., Na 327 mg/L as oleate) was 0.083 and the “Partition Coefficient” value ([2]; Example 41, 50° C., Na 653 mg/L as oleate) was 0.052. For the same compound, the “Partition Coefficient” value ([2]; Example 42, 50° C., Na 1307 mg/L as oleate) was 0.063, the “Partition Coefficient” value ([2]; Example 43, methanol/water 37/12 mL, 50° C., Na 0) was 0.074 and the “Partition Coefficient” value ([2]; Example 44, 50° C., Na 82 mg/L as n butyrate) was 0.063. The “Partition Coefficient” value ([2]; Example 45, 50° C., Na 164 mg/L as n butyrate) was 0.073, the “Partition Coefficient” value ([2]; Example 46, 50° C., Na 327 mg/L as n butyrate) was 0.053 and the “Partition Coefficient” value ([2]; Example 47, 50° C., Na 653 mg/L as n butyrate) was 0.051. The “Partition Coefficient” value ([2]; Example 48, 50° C., Na 1307 mg/L as n butyrate) was 0.038, the “Partition Coefficient” value ([2]; Example 49, methanol/water 37/27 mL, Na 0) was 0.0164 and the “Partition Coefficient” value ([2]; Example 50, methanol/water 37/27 mL, Na 100 as oleate) was 0.0210. The “Partition Coefficient” value ([2]; Example 51, methanol/water 37/27 mL, Na 200 as oleate) was 0.0210, the “Partition Coefficients” value ([2]; Example 52, Ref. Ex. 1, MeOH:water 3:1, 50° C., Na 0) was 0.115 and the “Partition Coefficients” value ([2]; Example 54, Ref. Ex. 1, Na 164 mg/L) was 0.073. For the same compound, the “Partition Coefficients” value ([2]; Example 56, Ref. Ex. 11, Na 0) was 0.081, the “Partition Coefficients” value ([2]; Example 58, Ref. Ex. 11, Na 164 mg/L) was 0.073 and the “Partition Coefficients” value ([2]; Example 60, Ref. Ex. 12, Na 0) was 0.071. The “Partition Coefficients” value ([2]; Example 62, Ref. Ex. 12, Na 164 mg/L) was 0.067, the “Partition Coefficients” value ([2]; Example 64, Ref. Ex. 7, Na 0) was 0.056 and the “Partition Coefficients” value ([2]; Example 66, Ref. Ex. 7, Na 164 mg/L) was 0.072. The “Partition Coefficients” value ([2]; Example 68, Ref. Ex. 13, Na 0) was 0.076, the “Partition Coefficients” value ([2]; Example 70, Ref. Ex. 13, Na 164 mg/L) was 0.060 and the “Partition Coefficient” value ([2]; Example 79, VCH product, Ref. Ex. 3, 40 mL methanol, 10 mL water, 50° C.) was 0.0859. For the same compound, the “Partition Coefficient” value ([2]; Example 80, as Example 79 plus 10 mL water) was 0.0233, the “Partition Coefficient” value ([2]; Example 81, as Example 80 plus 10 mL water) was 0.0050 and the “Partition Coefficient” value ([2]; Example 82, as Example 81 plus 10 mL water) was 0.0017. The “Partition Coefficient” value ([2]; Example 83, DCPD product, Ref. Ex. 4, procedure of Examples 79-82) was 0.0724, the “Partition Coefficient” value ([2]; Example 84, DCPD product, Ref. Ex. 4, procedure of Examples 79-82) was 0.0469 and the “Partition Coefficient” value ([2]; Example 85, DCPD product, Ref. Ex. 4, procedure of Examples 79-82) was 0.0269. The “Partition Coefficient” value ([2]; Example 86, CDDT product, Ref. Ex. 2, 37 mL methanol, 12 mL water, 25° C.) was 0.0297, the “Partition Coefficient” value ([2]; Example 87, as Example 86 plus 10 mL methanol) was 0.077 and the “Partition Coefficient” value ([2]; Example C-7, Ref. Ex. 19, DEG:water 3:1, 30° C.) was 0.128. The “Partition Coefficient” value ([2]; Example C-8, Ref. Ex. 19, DEG:water 1.5:1, 25° C.) was 0.030, the “Partition Coefficient” value ([2]; Example C-9, Ref. Ex. 10, PrOH:water 3:1, 50° C.) was 0.055 and the “Partition Coefficient” value ([2]; Example C-10, Ref. Ex. 10, PrOH:water 1.5:1, 50° C.) was 0.018. For the same compound, the “Partition Coefficient” value ([2]; Example C-11, Ref. Ex. 10, PrOH:water 1:1, 50° C.) was 0.013, the “Partition Coefficient” value ([2]; Example C-16, Ref. Ex. 19, DEG, no water, 58° C.) was 0.128 and the “Partition Coefficient” value ([2]; Example C-17, Ref. Ex. 19, DEG, no water, 33° C.) was 0.128. The “Partition Coefficient” value ([2]; Example C-18, Ref. Ex. 19, DEG:water 3:1, 30° C.) was 0.030, the “Partition Coefficient” value ([2]; Example C-19, Ref. Ex. 19, DEG:water 3:1, 60° C.) was 0.014 and the “Partition Coefficient” value ([2]; Example C-20, Ref. Ex. 19, DEG:water 1.5:1, 60° C.) was 0.0061. For the same compound, the “Partition Coefficient” value ([2]; Example C-21, Ref. Ex. 19, DEG:water 1.5:1, 25° C.) was 0.0030, the “Partition Coefficient” value ([2]; Example C-22, Ref. Ex. 10, PrOH:water 3:1, 50° C.) was 0.055 and the “Partition Coefficient” value ([2]; Example C-23, Ref. Ex. 10, PrOH:water 1.5:1, 50° C.) was 0.0182. The “Partition Coefficient” value ([2]; Example C-24, Ref. Ex. 10, PrOH:water 1:1, 50° C.) was 0.0132.
